Test results from ChEMBL document CHEMBL1201861, “Genomics of Drug Sensitity in Cancer screening data, Wellcome Trust Sanger Institute”.

Each molecule was assayed on LXF-289 cell line (assay: cells). Conditions: Homo sapiens, LXF-289.
Type: functional, cell-based, Homo sapiens
Description: SANGER: Inhibition of human LXF-289 cell growth in a cell viability assay.
Work on `N[C@@H](CSC(c1ccccc1)(c1ccccc1)c1ccccc1)C(=O)O` [S-TRITYL-L-CYSTEINE] yielded an IC50 of 0.977 µM.

Each molecule was assayed on MHH-PREB-1 (assay: cells). Conditions: Homo sapiens, MHH-PREB-1.
Type: functional, cell-based, Homo sapiens
Description: SANGER: Inhibition of human MHH-PREB-1 cell growth in a cell viability assay.
Work on `N[C@@H](CSC(c1ccccc1)(c1ccccc1)c1ccccc1)C(=O)O` [S-TRITYL-L-CYSTEINE] yielded an IC50 of over 5.12 µM.

Each molecule was assayed on 697 (assay: cells). Conditions: Homo sapiens.
Type: functional, cell-based, Homo sapiens
Description: SANGER: Inhibition of human 697 cell growth in a cell viability assay.
With `N[C@@H](CSC(c1ccccc1)(c1ccccc1)c1ccccc1)C(=O)O` [S-TRITYL-L-CYSTEINE] the IC50 was 0.328 µM.

The molecules below were run on TE-8 (assay: cells). Conditions: Homo sapiens, TE-8.
Type: functional, cell-based, Homo sapiens
Description: SANGER: Inhibition of human TE-8 cell growth in a cell viability assay.
Work on `N[C@@H](CSC(c1ccccc1)(c1ccccc1)c1ccccc1)C(=O)O` [S-TRITYL-L-CYSTEINE] yielded an IC50 of 0.722 µM.

These molecules were tested on U-266 (assay: cells). Conditions: Homo sapiens, U-266.
Type: functional, cell-based, Homo sapiens
Description: SANGER: Inhibition of human U-266 cell growth in a cell viability assay.
`N[C@@H](CSC(c1ccccc1)(c1ccccc1)c1ccccc1)C(=O)O` [S-TRITYL-L-CYSTEINE] showed an IC50 of 4.8 µM.

The molecules below were run on NCI-H1648 (assay: cells). Conditions: Homo sapiens, NCI-H1648.
Type: functional, cell-based, Homo sapiens
Description: SANGER: Inhibition of human NCI-H1648 cell growth in a cell viability assay.
For `N[C@@H](CSC(c1ccccc1)(c1ccccc1)c1ccccc1)C(=O)O` [S-TRITYL-L-CYSTEINE], the IC50 was 0.602 µM.

These molecules were tested on KMOE-2 (assay: cells). Conditions: Homo sapiens, KMOE-2.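 Also: growth inhibition of human KMOE-2 cells, read out with a cell viability assay.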
Type: functional, cell-based, Homo sapiens
Description: SANGER: Inhibition of human KMOE-2 cell growth in a cell viability assay.
For `N[C@@H](CSC(c1ccccc1)(c1ccccc1)c1ccccc1)C(=O)O` [S-TRITYL-L-CYSTEINE], the IC50 was over 5.12 µM.

What follows are molecules tested on HDLM-2 (assay: cells). Conditions: Homo sapiens, HDLM-2.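 Also: cell viability assay measuring suppression of HDLM-2 proliferation.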
Type: functional, cell-based, Homo sapiens
Description: SANGER: Inhibition of human HDLM-2 cell growth in a cell viability assay.
`N[C@@H](CSC(c1ccccc1)(c1ccccc1)c1ccccc1)C(=O)O` [S-TRITYL-L-CYSTEINE] gave an IC50 of 1.5 µM.

The molecules below were run on TGBC1TKB (assay: cells). Conditions: Homo sapiens, TGBC1TKB.
Type: functional, cell-based, Homo sapiens
Description: SANGER: Inhibition of human TGBC1TKB cell growth in a cell viability assay.
`N[C@@H](CSC(c1ccccc1)(c1ccccc1)c1ccccc1)C(=O)O` [S-TRITYL-L-CYSTEINE] showed an IC50 of 2.42 µM.

These molecules were tested on SK-UT-1 (assay: cells). Conditions: Homo sapiens, SK-UT-1.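 Also: growth inhibition of SK-UT-1 cells, measured by a cell viability assay.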
Type: functional, cell-based, Homo sapiens
Description: SANGER: Inhibition of human SK-UT-1 cell growth in a cell viability assay.
Work on `N[C@@H](CSC(c1ccccc1)(c1ccccc1)c1ccccc1)C(=O)O` [S-TRITYL-L-CYSTEINE] yielded an IC50 of 0.626 µM.

Each molecule was assayed on ML-2 (assay: cells). Conditions: Homo sapiens, ML-2.
Type: functional, cell-based, Homo sapiens
Description: SANGER: Inhibition of human ML-2 cell growth in a cell viability assay.
`N[C@@H](CSC(c1ccccc1)(c1ccccc1)c1ccccc1)C(=O)O` [S-TRITYL-L-CYSTEINE] was tested, and the IC50 was 2.09 µM.

Each molecule was assayed on KNS-81-FD (assay: cells). Conditions: Homo sapiens, KNS-81-FD.
Type: functional, cell-based, Homo sapiens
Description: SANGER: Inhibition of human KNS-81-FD cell growth in a cell viability assay.
`N[C@@H](CSC(c1ccccc1)(c1ccccc1)c1ccccc1)C(=O)O` [S-TRITYL-L-CYSTEINE] was tested, and the IC50 was over 5.12 µM.

These molecules were tested on COLO-668 (assay: cells). Conditions: Homo sapiens, COLO-668.
Type: functional, cell-based, Homo sapiens
Description: SANGER: Inhibition of human COLO-668 cell growth in a cell viability assay.
Work on `N[C@@H](CSC(c1ccccc1)(c1ccccc1)c1ccccc1)C(=O)O` [S-TRITYL-L-CYSTEINE] yielded an IC50 of over 5.12 µM.

Each molecule was assayed on SW872 (assay: cells). Conditions: Homo sapiens, SW872.
Type: functional, cell-based, Homo sapiens
Description: SANGER: Inhibition of human SW872 cell growth in a cell viability assay.
`N[C@@H](CSC(c1ccccc1)(c1ccccc1)c1ccccc1)C(=O)O` [S-TRITYL-L-CYSTEINE] was tested, and the IC50 was 0.795 µM.

The molecules below were run on SNB-75 (assay: cells). Conditions: Homo sapiens, SNB-75.
Type: functional, cell-based, Homo sapiens
Description: SANGER: Inhibition of human SNB75 cell growth in a cell viability assay.
For `N[C@@H](CSC(c1ccccc1)(c1ccccc1)c1ccccc1)C(=O)O` [S-TRITYL-L-CYSTEINE], the IC50 was 2.77 µM.

The molecules below were run on LS-123 (assay: cells). Conditions: Homo sapiens, LS-123.
Type: functional, cell-based, Homo sapiens
Description: SANGER: Inhibition of human LS-123 cell growth in a cell viability assay.
Molecule `N[C@@H](CSC(c1ccccc1)(c1ccccc1)c1ccccc1)C(=O)O` [S-TRITYL-L-CYSTEINE] has an IC50 of over 5.12 µM.

What follows are molecules tested on COLO-684 (assay: cells). Conditions: Homo sapiens, COLO-684.
Type: functional, cell-based, Homo sapiens
Description: SANGER: Inhibition of human COLO-684 cell growth in a cell viability assay.
Work on `N[C@@H](CSC(c1ccccc1)(c1ccccc1)c1ccccc1)C(=O)O` [S-TRITYL-L-CYSTEINE] yielded an IC50 of 2.08 µM.

What follows are molecules tested on ES1 (assay: cells). Conditions: Homo sapiens, ES1.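 Also: growth inhibition of ES1 cells, read out with a cell viability assay.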
Type: functional, cell-based, Homo sapiens
Description: SANGER: Inhibition of human ES1 cell growth in a cell viability assay.
Molecule `N[C@@H](CSC(c1ccccc1)(c1ccccc1)c1ccccc1)C(=O)O` [S-TRITYL-L-CYSTEINE] has an IC50 of 1.64 µM.

Each molecule was assayed on ES7 (assay: cells). Conditions: Homo sapiens, ES7.
Type: functional, cell-based, Homo sapiens
Description: SANGER: Inhibition of human ES7 cell growth in a cell viability assay.
Molecule `N[C@@H](CSC(c1ccccc1)(c1ccccc1)c1ccccc1)C(=O)O` [S-TRITYL-L-CYSTEINE] has an IC50 of over 5.12 µM.

Each molecule was assayed on COLO-829 (assay: cells). Conditions: Homo sapiens, COLO-829.
Type: functional, cell-based, Homo sapiens
Description: SANGER: Inhibition of human COLO-829 cell growth in a cell viability assay.
For `N[C@@H](CSC(c1ccccc1)(c1ccccc1)c1ccccc1)C(=O)O` [S-TRITYL-L-CYSTEINE], the IC50 was over 5.12 µM.

What follows are molecules tested on LAN-6 (assay: cells). Conditions: Homo sapiens, LAN-6.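 Also: growth inhibition of LAN-6 cells, determined with a cell viability assay.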
Type: functional, cell-based, Homo sapiens
Description: SANGER: Inhibition of human LAN-6 cell growth in a cell viability assay.
`N[C@@H](CSC(c1ccccc1)(c1ccccc1)c1ccccc1)C(=O)O` [S-TRITYL-L-CYSTEINE] showed an IC50 of 3.69 µM.

These molecules were tested on SW982 (assay: cells). Conditions: Homo sapiens, SW982.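 Also: growth inhibition of SW982 cells, read out with a cell viability assay.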
Type: functional, cell-based, Homo sapiens
Description: SANGER: Inhibition of human SW982 cell growth in a cell viability assay.
`N[C@@H](CSC(c1ccccc1)(c1ccccc1)c1ccccc1)C(=O)O` [S-TRITYL-L-CYSTEINE] showed an IC50 of 1.07 µM.

Each molecule was assayed on GT3TKB (assay: cells). Conditions: Homo sapiens, GT3TKB.
Type: functional, cell-based, Homo sapiens
Description: SANGER: Inhibition of human GT3TKB cell growth in a cell viability assay.
`N[C@@H](CSC(c1ccccc1)(c1ccccc1)c1ccccc1)C(=O)O` [S-TRITYL-L-CYSTEINE] was tested, and the IC50 was 0.285 µM.

These molecules were tested on CCRF-CEM (assay: cells). Conditions: Homo sapiens, CCRF-CEM.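 Also: inhibition of CCRF-CEM cell growth, measured by a cell viability assay.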
Type: functional, cell-based, Homo sapiens
Description: SANGER: Inhibition of human CCRF-CEM cell growth in a cell viability assay.
With `N[C@@H](CSC(c1ccccc1)(c1ccccc1)c1ccccc1)C(=O)O` [S-TRITYL-L-CYSTEINE] the IC50 was 2.11 µM.

Each molecule was assayed on A253 cell line (assay: cells). Conditions: Homo sapiens, A253.
Type: functional, cell-based, Homo sapiens
Description: SANGER: Inhibition of human A253 cell growth in a cell viability assay.
For `N[C@@H](CSC(c1ccccc1)(c1ccccc1)c1ccccc1)C(=O)O` [S-TRITYL-L-CYSTEINE], the IC50 was 3.71 µM.

What follows are molecules tested on GB-1 (assay: cells). Conditions: Homo sapiens, GB-1.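 Also: growth of GB-1 cells judged by a viability assay, IC50 marks the concentration inhibiting growth.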
Type: functional, cell-based, Homo sapiens
Description: SANGER: Inhibition of human GB-1 cell growth in a cell viability assay.
`N[C@@H](CSC(c1ccccc1)(c1ccccc1)c1ccccc1)C(=O)O` [S-TRITYL-L-CYSTEINE] was tested, and the IC50 was over 5.12 µM.

The molecules below were run on RPMI-8866 (assay: cells). Conditions: Homo sapiens, RPMI-8866.
Type: functional, cell-based, Homo sapiens
Description: SANGER: Inhibition of human RPMI-8866 cell growth in a cell viability assay.
Molecule `N[C@@H](CSC(c1ccccc1)(c1ccccc1)c1ccccc1)C(=O)O` [S-TRITYL-L-CYSTEINE] has an IC50 of over 5.12 µM.

The molecules below were run on SCC-15 (assay: cells). Conditions: Homo sapiens, SCC-15.
Type: functional, cell-based, Homo sapiens
Description: SANGER: Inhibition of human SCC-15 cell growth in a cell viability assay.
Molecule `N[C@@H](CSC(c1ccccc1)(c1ccccc1)c1ccccc1)C(=O)O` [S-TRITYL-L-CYSTEINE] has an IC50 of over 5.12 µM.

The molecules below were run on MHH-NB-11 (assay: cells). Conditions: Homo sapiens, MHH-NB-11.
Type: functional, cell-based, Homo sapiens
Description: SANGER: Inhibition of human MHH-NB-11 cell growth in a cell viability assay.
`N[C@@H](CSC(c1ccccc1)(c1ccccc1)c1ccccc1)C(=O)O` [S-TRITYL-L-CYSTEINE] gave an IC50 of 4.67 µM.

Each molecule was assayed on NKM-1 (assay: cells). Conditions: Homo sapiens, NKM-1.
Type: functional, cell-based, Homo sapiens
Description: SANGER: Inhibition of human NKM-1 cell growth in a cell viability assay.
For `N[C@@H](CSC(c1ccccc1)(c1ccccc1)c1ccccc1)C(=O)O` [S-TRITYL-L-CYSTEINE], the IC50 was over 5.12 µM.

What follows are molecules tested on VA-ES-BJ (assay: cells). Conditions: Homo sapiens, VA-ES-BJ.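 Also: growth inhibition of the VA-ES-BJ cell line, read out by a cell viability assay.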
Type: functional, cell-based, Homo sapiens
Description: SANGER: Inhibition of human VA-ES-BJ cell growth in a cell viability assay.
With `N[C@@H](CSC(c1ccccc1)(c1ccccc1)c1ccccc1)C(=O)O` [S-TRITYL-L-CYSTEINE] the IC50 was 0.804 µM.

The molecules below were run on ONS-76 (assay: cells). Conditions: Homo sapiens, ONS-76.
Type: functional, cell-based, Homo sapiens
Description: SANGER: Inhibition of human ONS-76 cell growth in a cell viability assay.
Work on `N[C@@H](CSC(c1ccccc1)(c1ccccc1)c1ccccc1)C(=O)O` [S-TRITYL-L-CYSTEINE] yielded an IC50 of over 5.12 µM.

Each molecule was assayed on TGBC24TKB (assay: cells). Conditions: Homo sapiens, TGBC24TKB.
Type: functional, cell-based, Homo sapiens
Description: SANGER: Inhibition of human TGBC24TKB cell growth in a cell viability assay.
`N[C@@H](CSC(c1ccccc1)(c1ccccc1)c1ccccc1)C(=O)O` [S-TRITYL-L-CYSTEINE] was tested, and the IC50 was 2.22 µM.

What follows are molecules tested on COLO-800 (assay: cells). Conditions: Homo sapiens, COLO-800.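 Also: growth inhibition of COLO-800 cells, read out with a cell viability assay.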
Type: functional, cell-based, Homo sapiens
Description: SANGER: Inhibition of human COLO-800 cell growth in a cell viability assay.
Work on `N[C@@H](CSC(c1ccccc1)(c1ccccc1)c1ccccc1)C(=O)O` [S-TRITYL-L-CYSTEINE] yielded an IC50 of over 5.12 µM.

Each molecule was assayed on no-11 (assay: cells). Conditions: Homo sapiens.
Type: functional, cell-based, Homo sapiens
Description: SANGER: Inhibition of human no-11 cell growth in a cell viability assay.
Molecule `N[C@@H](CSC(c1ccccc1)(c1ccccc1)c1ccccc1)C(=O)O` [S-TRITYL-L-CYSTEINE] has an IC50 of 4.93 µM.

The molecules below were run on BB49-HNC (assay: cells). Conditions: Homo sapiens, BB49-HNC.
Type: functional, cell-based, Homo sapiens
Description: SANGER: Inhibition of human BB49-HNC cell growth in a cell viability assay.
With `N[C@@H](CSC(c1ccccc1)(c1ccccc1)c1ccccc1)C(=O)O` [S-TRITYL-L-CYSTEINE] the IC50 was over 5.12 µM.

These molecules were tested on SNU1 (assay: cells). Conditions: Homo sapiens, SNU1.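 Also: growth inhibition of human NCI-SNU-1 cells, measured with a cell viability assay.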
Type: functional, cell-based, Homo sapiens
Description: SANGER: Inhibition of human NCI-SNU-1 cell growth in a cell viability assay.
In the case of `N[C@@H](CSC(c1ccccc1)(c1ccccc1)c1ccccc1)C(=O)O` [S-TRITYL-L-CYSTEINE], the IC50 is reported as over 5.12 µM.

What follows are molecules tested on EC-GI-10 (assay: cells). Conditions: Homo sapiens, EC-GI-10.
Type: functional, cell-based, Homo sapiens
Description: SANGER: Inhibition of human EC-GI-10 cell growth in a cell viability assay.
For `N[C@@H](CSC(c1ccccc1)(c1ccccc1)c1ccccc1)C(=O)O` [S-TRITYL-L-CYSTEINE], the IC50 was over 5.12 µM.

These molecules were tested on LB1047-RCC (assay: cells). Conditions: Homo sapiens, LB1047-RCC.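 Also: inhibition of cell growth, determined with a cell viability assay.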
Type: functional, cell-based, Homo sapiens
Description: SANGER: Inhibition of human LB1047-RCC cell growth in a cell viability assay.
For `N[C@@H](CSC(c1ccccc1)(c1ccccc1)c1ccccc1)C(=O)O` [S-TRITYL-L-CYSTEINE], the IC50 was 2.6 µM.

Each molecule was assayed on KLE (assay: cells). Conditions: Homo sapiens, KLE.
Type: functional, cell-based, Homo sapiens
Description: SANGER: Inhibition of human KLE cell growth in a cell viability assay.
`N[C@@H](CSC(c1ccccc1)(c1ccccc1)c1ccccc1)C(=O)O` [S-TRITYL-L-CYSTEINE] gave an IC50 of over 5.12 µM.

Each molecule was assayed on CTV-1 (assay: cells). Conditions: Homo sapiens, CTV-1.
Type: functional, cell-based, Homo sapiens
Description: SANGER: Inhibition of human CTV-1 cell growth in a cell viability assay.
`N[C@@H](CSC(c1ccccc1)(c1ccccc1)c1ccccc1)C(=O)O` [S-TRITYL-L-CYSTEINE] gave an IC50 of 0.788 µM.

What follows are molecules tested on TE-12 (assay: cells). Conditions: Homo sapiens, TE-12.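 Also: growth inhibition of TE-12 cells, read out by a cell viability assay.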
Type: functional, cell-based, Homo sapiens
Description: SANGER: Inhibition of human TE-12 cell growth in a cell viability assay.
`N[C@@H](CSC(c1ccccc1)(c1ccccc1)c1ccccc1)C(=O)O` [S-TRITYL-L-CYSTEINE] gave an IC50 of over 5.12 µM.

These molecules were tested on CP66-MEL (assay: cells). Conditions: Homo sapiens, CP66-MEL.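 Also: growth inhibition of CP66-MEL cells determined in a cell viability assay.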
Type: functional, cell-based, Homo sapiens
Description: SANGER: Inhibition of human CP66-MEL cell growth in a cell viability assay.
Molecule `N[C@@H](CSC(c1ccccc1)(c1ccccc1)c1ccccc1)C(=O)O` [S-TRITYL-L-CYSTEINE] has an IC50 of 3.44 µM.

Each molecule was assayed on EOL1 (assay: cells). Conditions: Homo sapiens, EOL1.
Type: functional, cell-based, Homo sapiens
Description: SANGER: Inhibition of human EoL-1-cell cell growth in a cell viability assay.
Molecule `N[C@@H](CSC(c1ccccc1)(c1ccccc1)c1ccccc1)C(=O)O` [S-TRITYL-L-CYSTEINE] has an IC50 of 1.19 µM.

Each molecule was assayed on SF-126 (assay: cells). Conditions: Homo sapiens, SF-126.
Type: functional, cell-based, Homo sapiens
Description: SANGER: Inhibition of human SF126 cell growth in a cell viability assay.
With `N[C@@H](CSC(c1ccccc1)(c1ccccc1)c1ccccc1)C(=O)O` [S-TRITYL-L-CYSTEINE] the IC50 was 3.01 µM.

The molecules below were run on NCI-H510A (assay: cells). Conditions: Homo sapiens, NCI-H510A.
Type: functional, cell-based, Homo sapiens
Description: SANGER: Inhibition of human NCI-H510A cell growth in a cell viability assay.
Work on `N[C@@H](CSC(c1ccccc1)(c1ccccc1)c1ccccc1)C(=O)O` [S-TRITYL-L-CYSTEINE] yielded an IC50 of 1.38 µM.

Each molecule was assayed on EW-18 (assay: cells). Conditions: Homo sapiens, EW-18.
Type: functional, cell-based, Homo sapiens
Description: SANGER: Inhibition of human EW-18 cell growth in a cell viability assay.
Molecule `N[C@@H](CSC(c1ccccc1)(c1ccccc1)c1ccccc1)C(=O)O` [S-TRITYL-L-CYSTEINE] has an IC50 of over 5.12 µM.

The molecules below were run on DSH1 (assay: cells). Conditions: Homo sapiens, DSH1.
Type: functional, cell-based, Homo sapiens
Description: SANGER: Inhibition of human DSH1 cell growth in a cell viability assay.
Molecule `N[C@@H](CSC(c1ccccc1)(c1ccccc1)c1ccccc1)C(=O)O` [S-TRITYL-L-CYSTEINE] has an IC50 of over 5.12 µM.

What follows are molecules tested on NB69 (assay: cells). Conditions: Homo sapiens, NB69.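 Also: growth inhibition of NB69 cells, determined by a cell viability assay.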
Type: functional, cell-based, Homo sapiens
Description: SANGER: Inhibition of human NB69 cell growth in a cell viability assay.
Work on `N[C@@H](CSC(c1ccccc1)(c1ccccc1)c1ccccc1)C(=O)O` [S-TRITYL-L-CYSTEINE] yielded an IC50 of 1.76 µM.
